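How tested: cells in 96-well plates exposed to compound for 48 hours at five concentrations. At the GI50, growth is halved.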 Activity calls are given as the source filed them. No stated cut-off is given here; in the data, active = GI50 up to about 1.1 µM and inactive = higher.
Tests used:
Test in all cases: inhibition of tumour cell growth, NCI panel, 48 h
[1] = test system: SK-MEL-28
[2] = test system: SK-MEL-5
[3] = test system: HT-29
[4] = test system: OVCAR-5
[5] = test system: CAKI-1
[6] = test system: NCI-H460
[7] = test system: U-251
[8] = test system: UACC-62
[9] = test system: HCT-15
[10] = test system: HL-60
[11] = test system: SN12C
[12] = test system: A549
[13] = test system: OVCAR-3
[14] = test system: NCI-H226
[15] = test system: SK-OV-3
[16] = test system: CCRF-CEM
[17] = test system: COLO 205

Measured: GI50

CCC1CN2CCc3cc(OC)c(OC)cc3C2CC1CC1c2cc(OC)c(OC)cc2CCN1C(=O)C1CCCN1C(=O)OCc1ccccc1 (stereo unspecified)
16.2 µM: [9]
inactive: [1] 16.9 µM | [2] 15.5 µM | [3] 14.1 µM | [4] 18.1 µM | [5] 20.3 µM | [6] 15.5 µM | [7] 15 µM | [8] 16.1 µM | [10] 13.1 µM | [11] 16.3 µM | [12] 18.9 µM | [13] 16.2 µM | [14] 16.1 µM

CC(C)C1CC2C(=O)N(c3ccccc3)C(=O)C2c2[nH]c3ccccc3c21 (stereo unspecified)
14.6 µM: [9]
inactive: [1] 23.4 µM | [2] 73.8 µM | [3] 22.9 µM | [4] > 100 µM | [5] 5.68 µM | [6] 4.63 µM | [7] 12 µM | [8] 24.6 µM | [10] 7.45 µM | [15] 20.5 µM | [12] 14.4 µM | [13] 5.78 µM | [16] 14 µM | [14] 16.2 µM

COc1ccc(C(=O)C(c2ccc(OC)cc2)C2(O)C(=O)Nc3c2ccc(Cl)c3C)cc1 (stereo unspecified)
inactive: [1] > 100 µM | [2] > 100 µM | [3] > 100 µM | [4] > 100 µM | [6] > 100 µM | [7] > 100 µM | [8] > 100 µM | [17] > 100 µM | [10] > 100 µM | [15] > 100 µM | [11] > 100 µM | [12] > 100 µM | [13] > 100 µM | [16] > 100 µM | [14] > 100 µM
> 100 µM: [9]

O=C1c2ccccc2C2(O)c3cc4ccccc4cc3OC12O (stereo unspecified)
53.2 µM: [9]
inactive: [1] 59.3 µM | [2] 30.1 µM | [3] > 100 µM | [4] > 100 µM | [5] 62.7 µM | [6] 76.7 µM | [7] 54.7 µM | [8] 47.2 µM | [17] > 100 µM | [15] > 100 µM | [11] 92.5 µM | [12] 44.4 µM | [13] 53.6 µM | [16] 47.2 µM | [14] 42.4 µM

— ChEMBL document CHEMBL1201862, “PubChem BioAssay data set” (2004)
